From ChEMBL document CHEMBL3046451, “Design, synthesis, characterization, and in vitro antimicrobial action of novel trisubstituted s-triazines” (2012)
Values after ≈ are worked out from the molar mass of the structure shown.

What was measured:
Assay type in all cases: functional
Candida albicans [1] = experiment: Antifungal activity against Candida albicans MTCC 183 after 48 hr by agar streak dilution method; conditions: MTCC 183, 48 h
Aspergillus niger [2] = experiment: Antifungal activity against Aspergillus niger MTCC 282 after 48 hr by agar streak dilution method; conditions: MTCC 282, 48 h
Candida albicans [3] = experiment: Antifungal activity against Candida albicans MTCC 183 after 24 hr by paper disk diffusion method
Aspergillus niger [4] = experiment: Antifungal activity against Aspergillus niger MTCC 282 after 24 hr by paper disk diffusion method
Shigella flexneri [5] = experiment: Antibacterial activity against Shigella flexneri MTCC 1457 after 24 hr by agar streak dilution method; conditions: MTCC 1457, 24 h
Proteus vulgaris [6] = experiment: Antibacterial activity against Proteus vulgaris MTCC 1771 after 24 hr by agar streak dilution method; conditions: MTCC 1771, 24 h
Salmonella typhi [7] = experiment: Antibacterial activity against Salmonella enterica subsp. enterica serovar Typhi MTCC 733 after 24 hr by agar streak dilution method; conditions: MTCC 733, 24 h
Klebsiella pneumoniae [8] = experiment: Antibacterial activity against Klebsiella pneumoniae MTCC 109 after 24 hr by agar streak dilution method; conditions: MTCC 109, 24 h
Pseudomonas aeruginosa [9] = experiment: Antibacterial activity against Pseudomonas aeruginosa MTCC 741 after 24 hr by agar streak dilution method; conditions: MTCC 741, 24 h
Escherichia coli [10] = experiment: Antibacterial activity against Escherichia coli MTCC 739 after 24 hr by agar streak dilution method; conditions: MTCC 739, 24 h
Bacillus cereus [11] = experiment: Antibacterial activity against Bacillus cereus MTCC 619 after 24 hr by agar streak dilution method; conditions: MTCC 619, 24 h
Staphylococcus aureus [12] = experiment: Antibacterial activity against Staphylococcus aureus MTCC 96 after 24 hr by agar streak dilution method; conditions: MTCC 96, 24 h
Shigella flexneri [13] = experiment: Antibacterial activity against Shigella flexneri MTCC 1457 after 24 hr by paper disk diffusion method
Proteus vulgaris [14] = experiment: Antibacterial activity against Proteus vulgaris MTCC 1771 after 24 hr by paper disk diffusion method
Salmonella typhi [15] = experiment: Antibacterial activity against Salmonella enterica subsp. enterica serovar Typhi MTCC 733 after 24 hr by paper disk diffusion method
Klebsiella pneumoniae [16] = experiment: Antibacterial activity against Klebsiella pneumoniae MTCC 109 after 24 hr by paper disk diffusion method
Pseudomonas aeruginosa [17] = experiment: Antibacterial activity against Pseudomonas aeruginosa MTCC 741 after 24 hr by paper disk diffusion method
Escherichia coli [18] = experiment: Antibacterial activity against Escherichia coli MTCC 739 after 24 hr by paper disk diffusion method
Bacillus cereus [19] = experiment: Antibacterial activity against Bacillus cereus MTCC 619 after 24 hr by paper disk diffusion method
Staphylococcus aureus [20] = experiment: Antibacterial activity against Staphylococcus aureus MTCC 96 after 24 hr by paper disk diffusion method

Compound: Cn1c(=O)cc(Oc2nc(NCc3ccccc3)nc(Nc3ccc(C#N)cc3)n2)c2ccccc21
- MIC (Candida albicans [1]): > 50 µg/mL
- MIC (Aspergillus niger [2]): > 50 µg/mL
- inhibition zone (IZ) (Candida albicans [3]): <5 mm
- inhibition zone (IZ) (Aspergillus niger [4]): <5 mm
- MIC (Shigella flexneri [5]): 50 µg/mL (≈ 105 µM)
- MIC (Proteus vulgaris [6]): 50 µg/mL (≈ 105 µM)
- MIC (Salmonella typhi [7]): 50 µg/mL (≈ 105 µM)
- MIC (Klebsiella pneumoniae [8]): 12.5 µg/mL (≈ 26.3 µM)
- MIC (Pseudomonas aeruginosa [9]): 50 µg/mL (≈ 105 µM)
- MIC (Escherichia coli [10]): 50 µg/mL (≈ 105 µM)
- MIC (Bacillus cereus [11]): 50 µg/mL (≈ 105 µM)
- MIC (Staphylococcus aureus [12]): 12.5 µg/mL (≈ 26.3 µM)
- inhibition zone (IZ) (Shigella flexneri [13]): 6 mm
- inhibition zone (IZ) (Proteus vulgaris [14]): <5 mm
- inhibition zone (IZ) (Salmonella typhi [15]): <5 mm
- inhibition zone (IZ) (Klebsiella pneumoniae [16]): 15 mm
- inhibition zone (IZ) (Pseudomonas aeruginosa [17]): 7 mm
- inhibition zone (IZ) (Escherichia coli [18]): 9 mm
- inhibition zone (IZ) (Bacillus cereus [19]): 10 mm
- inhibition zone (IZ) (Staphylococcus aureus [20]): 13 mm

Compound: CNc1nc(Nc2ccc(C#N)cc2)nc(Oc2cc(=O)n(C)c3ccccc23)n1
- MIC (Candida albicans [1]): > 50 µg/mL
- MIC (Aspergillus niger [2]): > 50 µg/mL
- inhibition zone (IZ) (Candida albicans [3]): <5 mm
- inhibition zone (IZ) (Aspergillus niger [4]): <5 mm
- MIC (Shigella flexneri [5]): 50 µg/mL (≈ 125 µM)
- MIC (Proteus vulgaris [6]): 50 µg/mL (≈ 125 µM)
- MIC (Salmonella typhi [7]): 50 µg/mL (≈ 125 µM)
- MIC (Klebsiella pneumoniae [8]): 50 µg/mL (≈ 125 µM)
- MIC (Pseudomonas aeruginosa [9]): 6.25 µg/mL (≈ 15.6 µM)
- MIC (Escherichia coli [10]): 50 µg/mL (≈ 125 µM)
- MIC (Bacillus cereus [11]): 50 µg/mL (≈ 125 µM)
- MIC (Staphylococcus aureus [12]): 50 µg/mL (≈ 125 µM)
- inhibition zone (IZ) (Shigella flexneri [13]): 8 mm
- inhibition zone (IZ) (Proteus vulgaris [14]): 8 mm
- inhibition zone (IZ) (Salmonella typhi [15]): <5 mm
- inhibition zone (IZ) (Pseudomonas aeruginosa [17]): 14 mm
- inhibition zone (IZ) (Escherichia coli [18]): <5 mm
- inhibition zone (IZ) (Bacillus cereus [19]): 7 mm
- inhibition zone (IZ) (Staphylococcus aureus [20]): 11 mm

Compound: CC(C)Nc1nc(Nc2ccc(C#N)cc2)nc(Oc2cc(=O)n(C)c3ccccc23)n1
- MIC (Candida albicans [1]): 50 µg/mL (≈ 117 µM)
- MIC (Aspergillus niger [2]): 50 µg/mL (≈ 117 µM)
- inhibition zone (IZ) (Candida albicans [3]): 7 mm
- inhibition zone (IZ) (Aspergillus niger [4]): 8 mm
- MIC (Shigella flexneri [5]): 50 µg/mL (≈ 117 µM)
- MIC (Proteus vulgaris [6]): 50 µg/mL (≈ 117 µM)
- MIC (Salmonella typhi [7]): 50 µg/mL (≈ 117 µM)
- MIC (Klebsiella pneumoniae [8]): 50 µg/mL (≈ 117 µM)
- MIC (Pseudomonas aeruginosa [9]): 50 µg/mL (≈ 117 µM)
- MIC (Escherichia coli [10]): 50 µg/mL (≈ 117 µM)
- MIC (Bacillus cereus [11]): 25 µg/mL (≈ 58.5 µM)
- MIC (Staphylococcus aureus [12]): 50 µg/mL (≈ 117 µM)
- inhibition zone (IZ) (Shigella flexneri [13]): 8 mm
- inhibition zone (IZ) (Proteus vulgaris [14]): 8 mm
- inhibition zone (IZ) (Salmonella typhi [15]): 6 mm
- inhibition zone (IZ) (Pseudomonas aeruginosa [17]): <5 mm
- inhibition zone (IZ) (Escherichia coli [18]): 9 mm
- inhibition zone (IZ) (Bacillus cereus [19]): 13 mm
- inhibition zone (IZ) (Staphylococcus aureus [20]): 8 mm

Compound: CN(C)c1nc(Nc2ccc(C#N)cc2)nc(Oc2cc(=O)n(C)c3ccccc23)n1
- MIC (Candida albicans [1]): > 50 µg/mL
- MIC (Aspergillus niger [2]): > 50 µg/mL
- inhibition zone (IZ) (Candida albicans [3]): <5 mm
- inhibition zone (IZ) (Aspergillus niger [4]): <5 mm
- MIC (Shigella flexneri [5]): 50 µg/mL (≈ 121 µM)
- MIC (Proteus vulgaris [6]): 50 µg/mL (≈ 121 µM)
- MIC (Salmonella typhi [7]): 50 µg/mL (≈ 121 µM)
- MIC (Klebsiella pneumoniae [8]): 50 µg/mL (≈ 121 µM)
- MIC (Pseudomonas aeruginosa [9]): 50 µg/mL (≈ 121 µM)
- MIC (Escherichia coli [10]): 50 µg/mL (≈ 121 µM)
- MIC (Bacillus cereus [11]): 12.5 µg/mL (≈ 30.2 µM)
- MIC (Staphylococcus aureus [12]): 50 µg/mL (≈ 121 µM)
- inhibition zone (IZ) (Shigella flexneri [13]): <5 mm
- inhibition zone (IZ) (Proteus vulgaris [14]): 9 mm
- inhibition zone (IZ) (Salmonella typhi [15]): 7 mm
- inhibition zone (IZ) (Pseudomonas aeruginosa [17]): 8 mm
- inhibition zone (IZ) (Escherichia coli [18]): 10 mm
- inhibition zone (IZ) (Bacillus cereus [19]): 14 mm
- inhibition zone (IZ) (Staphylococcus aureus [20]): 12 mm

Compound: CCCCNc1nc(Nc2ccc(C#N)cc2)nc(Oc2cc(=O)n(C)c3ccccc23)n1
- MIC (Candida albicans [1]): 50 µg/mL (≈ 113 µM)
- MIC (Aspergillus niger [2]): > 50 µg/mL
- inhibition zone (IZ) (Candida albicans [3]): 6 mm
- inhibition zone (IZ) (Aspergillus niger [4]): <5 mm
- MIC (Shigella flexneri [5]): 50 µg/mL (≈ 113 µM)
- MIC (Proteus vulgaris [6]): 50 µg/mL (≈ 113 µM)
- MIC (Salmonella typhi [7]): 50 µg/mL (≈ 113 µM)
- MIC (Klebsiella pneumoniae [8]): 50 µg/mL (≈ 113 µM)
- MIC (Pseudomonas aeruginosa [9]): 25 µg/mL (≈ 56.6 µM)
- MIC (Escherichia coli [10]): 50 µg/mL (≈ 113 µM)
- MIC (Bacillus cereus [11]): 50 µg/mL (≈ 113 µM)
- MIC (Staphylococcus aureus [12]): 50 µg/mL (≈ 113 µM)
- inhibition zone (IZ) (Shigella flexneri [13]): 7 mm
- inhibition zone (IZ) (Proteus vulgaris [14]): <5 mm
- inhibition zone (IZ) (Salmonella typhi [15]): 6 mm
- inhibition zone (IZ) (Pseudomonas aeruginosa [17]): 11 mm
- inhibition zone (IZ) (Escherichia coli [18]): <5 mm
- inhibition zone (IZ) (Bacillus cereus [19]): 8 mm
- inhibition zone (IZ) (Staphylococcus aureus [20]): 12 mm
